Laboratory results taken from patent publication US8192962B2, “Processes for detecting toxic substances” (Daikin Industries, Ltd., priority 2001, dated 2012).

Test system: Genes belonging to other category
Assay: DNA chip mRNA expression in yeast, genes belonging to other category (Table 9)
Assay type: cell-based, Saccharomyces cerevisiae S288C
Summary of the method: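 Value is the scanned fluorescence intensity ratio of exposed versus chemical-free cells. Log-phase S288C yeast in YPD at 25° C. received one toxic substance for two hours, dosed to slow growth without killing; Cy3/Cy5-labeled cDNA from oligo-dT-purified mRNA was hybridized to a whole-genome chip at 65° C.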

CCCCCCCCCCCCOS(=O)(=O)[O-].[Na+] [(18), sodium lauryl sulfate]
The level of expressed mRNA in the presence of chemical substance/The level of expressed mRNA in the absence of chemical substance (yeast gene YAR010C): 1.0
The level of expressed mRNA in the presence of chemical substance/The level of expressed mRNA in the absence of chemical substance (yeast gene YBL005W-A): 1.0
The level of expressed mRNA in the presence of chemical substance/The level of expressed mRNA in the absence of chemical substance (yeast gene YBL041W): 2.0
The level of expressed mRNA in the presence of chemical substance/The level of expressed mRNA in the absence of chemical substance (yeast gene YBL043W): 1.8
The level of expressed mRNA in the presence of chemical substance/The level of expressed mRNA in the absence of chemical substance (yeast gene YBL078C): 2.8
The level of expressed mRNA in the presence of chemical substance/The level of expressed mRNA in the absence of chemical substance (yeast gene YBL101C): 1.1
The level of expressed mRNA in the presence of chemical substance/The level of expressed mRNA in the absence of chemical substance (yeast gene YBL101W-A): 1.2
The level of expressed mRNA in the presence of chemical substance/The level of expressed mRNA in the absence of chemical substance (yeast gene YBR009C): 2.4
The level of expressed mRNA in the presence of chemical substance/The level of expressed mRNA in the absence of chemical substance (yeast gene YBR076W): 1.2
The level of expressed mRNA in the presence of chemical substance/The level of expressed mRNA in the absence of chemical substance (yeast gene YBR170C): 1.4
The level of expressed mRNA in the presence of chemical substance/The level of expressed mRNA in the absence of chemical substance (yeast gene YBR173C): 1.6
The level of expressed mRNA in the presence of chemical substance/The level of expressed mRNA in the absence of chemical substance (yeast gene YBR177C): 0.9
The level of expressed mRNA in the presence of chemical substance/The level of expressed mRNA in the absence of chemical substance (yeast gene YBR214W): 1.2
The level of expressed mRNA in the presence of chemical substance/The level of expressed mRNA in the absence of chemical substance (yeast gene YBR239C): 0.9
The level of expressed mRNA in the presence of chemical substance/The level of expressed mRNA in the absence of chemical substance (yeast gene YBR286W): 1.6
The level of expressed mRNA in the presence of chemical substance/The level of expressed mRNA in the absence of chemical substance (yeast gene YCL020W): 1.3
The level of expressed mRNA in the presence of chemical substance/The level of expressed mRNA in the absence of chemical substance (yeast gene YCL027W): 0.8
The level of expressed mRNA in the presence of chemical substance/The level of expressed mRNA in the absence of chemical substance (yeast gene YCR004C): 3.5
The level of expressed mRNA in the presence of chemical substance/The level of expressed mRNA in the absence of chemical substance (yeast gene YCR038C): 1.1
The level of expressed mRNA in the presence of chemical substance/The level of expressed mRNA in the absence of chemical substance (yeast gene YCR067C): 0.9
The level of expressed mRNA in the presence of chemical substance/The level of expressed mRNA in the absence of chemical substance (yeast gene YCR071C): 1.3
The level of expressed mRNA in the presence of chemical substance/The level of expressed mRNA in the absence of chemical substance (yeast gene YCR088W): 0.9
The level of expressed mRNA in the presence of chemical substance/The level of expressed mRNA in the absence of chemical substance (yeast gene YCR106W): 1.2
The level of expressed mRNA in the presence of chemical substance/The level of expressed mRNA in the absence of chemical substance (yeast gene YDL008W): 1.6
The level of expressed mRNA in the presence of chemical substance/The level of expressed mRNA in the absence of chemical substance (yeast gene YDL065C): 1.2
The level of expressed mRNA in the presence of chemical substance/The level of expressed mRNA in the absence of chemical substance (yeast gene YDL192W): 2.3
The level of expressed mRNA in the presence of chemical substance/The level of expressed mRNA in the absence of chemical substance (yeast gene YDL220C): 0.9
The level of expressed mRNA in the presence of chemical substance/The level of expressed mRNA in the absence of chemical substance (yeast gene YDL230W): 1.2
The level of expressed mRNA in the presence of chemical substance/The level of expressed mRNA in the absence of chemical substance (yeast gene YDL238C): 1.3
The level of expressed mRNA in the presence of chemical substance/The level of expressed mRNA in the absence of chemical substance (yeast gene YDR022C): 1.2
The level of expressed mRNA in the presence of chemical substance/The level of expressed mRNA in the absence of chemical substance (yeast gene YDR041W): 2.5
The level of expressed mRNA in the presence of chemical substance/The level of expressed mRNA in the absence of chemical substance (yeast gene YDR055W): 1.9
The level of expressed mRNA in the presence of chemical substance/The level of expressed mRNA in the absence of chemical substance (yeast gene YDR084C): 1.3
The level of expressed mRNA in the presence of chemical substance/The level of expressed mRNA in the absence of chemical substance (yeast gene YDR085C): 1.8
The level of expressed mRNA in the presence of chemical substance/The level of expressed mRNA in the absence of chemical substance (yeast gene YDR104C): 1.0
The level of expressed mRNA in the presence of chemical substance/The level of expressed mRNA in the absence of chemical substance (yeast gene YDR115W): 1.4
The level of expressed mRNA in the presence of chemical substance/The level of expressed mRNA in the absence of chemical substance (yeast gene YDR125C): 1.2
The level of expressed mRNA in the presence of chemical substance/The level of expressed mRNA in the absence of chemical substance (yeast gene YDR168W): 1.4
The level of expressed mRNA in the presence of chemical substance/The level of expressed mRNA in the absence of chemical substance (yeast gene YDR169C): 1.1
The level of expressed mRNA in the presence of chemical substance/The level of expressed mRNA in the absence of chemical substance (yeast gene YDR181C): 1.2
The level of expressed mRNA in the presence of chemical substance/The level of expressed mRNA in the absence of chemical substance (yeast gene YDR188W): 0.8
The level of expressed mRNA in the presence of chemical substance/The level of expressed mRNA in the absence of chemical substance (yeast gene YDR259C): 0.8
The level of expressed mRNA in the presence of chemical substance/The level of expressed mRNA in the absence of chemical substance (yeast gene YDR264C): 1.4
The level of expressed mRNA in the presence of chemical substance/The level of expressed mRNA in the absence of chemical substance (yeast gene YDR315C): 1.2
The level of expressed mRNA in the presence of chemical substance/The level of expressed mRNA in the absence of chemical substance (yeast gene YDR358W): 1.9
The level of expressed mRNA in the presence of chemical substance/The level of expressed mRNA in the absence of chemical substance (yeast gene YDR373W): 1.6
The level of expressed mRNA in the presence of chemical substance/The level of expressed mRNA in the absence of chemical substance (yeast gene YDR388W): 1.3
